Experimental data taken from patent publication US20090291977A1, “Chromane Derivatives Useful As Acid Pump Antagonists” (priority 2004, published 2009).

Columns and labels:
[1] = biological target: T1, Porcine gastric H+/K+-ATPase (Sus scrofa, UniProt P19156); test: Ion-leaky porcine gastric H+/K+-ATPase inhibition; format: biochemical; conditions: ion-leaky vesicles, 5 mM KCl, pH 6.4, 37° C., 30 minutes
T1 construct: The gastric vesicles were collected from interface on 0.25 M sucrose layer containing 7% Ficoll; from tissue; host or cells: mucous membrane of fresh porcine stomachs (gastric vesicles)
Method: The porcine gastric vesicles for Porcine gastric H^+/K^+-ATPase inhibition assays were prepared from mucous membrane in fresh porcine stomachs by homogenization with a tight-fitted polytetrafluoroethylene (Teflone®) homogenizer in 0.25 M sucrose at 4° C. The crude pellet was removed with centrifugation at 20,000 g for 30 min. Then supernatant was centrifuged at 100,000 g for 30 min. The resulting pellet was re-suspended in 0.25 M sucrose, and then subjected to density gradient centrifugation at 132,000 g for 90 min. The gastric vesicles were collected from interface on 0.25 M sucrose layer containing 7% Ficoll™ PM400(Amersham Biosciences). This procedure was performed in a cold room.
Ion-leaky porcine gastric H^+/K^+-ATPase-inhibition was measured according to the modified method described in Biochemical Pharmacology, 1988, 37, 2231-2236.
The isolated vesicles were lyophilized, and then kept in deep-freezer until use. For enzyme assay, lyophilized vesicles were reconstituted with 3 mM MgSO4 containing 40 mM Bis-tris (pH 6.4 at 37° C.).
Enzyme reaction was performed incubating 5 mM KCl, 3 mM Na2ATP, 3 mM MgSO4 and 1.0 μg of reconstituted vesicles for 30 minutes at 37° C. in a final 60 μl of reaction mixture (40 mM Bis-tris, pH 6.4) with or without the test compound. Enzyme reaction was stopped by adding 10% sodium dodecyl sulphate (SDS). Released inorganic phosphate from ATP was detected by incubation with mixture of 1 part of 35 mM ammonium molybdate tetrahydrate in 15 mM Zinc acetate hydrate and 4 parts of 10% ascorbic acid (pH 5.0), resulting in phosphomolybdate, which has optical density at 750 nm.

[2] = test system: acid secretion in the gastric lumen-perfused rat; test: Inhibition of acid secretion in the gastric lumen-perfused rat; format: in vivo; conditions: Sprague-Dawley rat, pentagastrin-stimulated acid secretion, intravenous bolus or intraduodenal administration
Method: Acid secretion in the gastric lumen-perfused rat was measured according to Watanabe et al. [Watanabe K et al., J. Physiol. (Paris) 2000; 94: 111-116].
Male Sprague-Dawley rats, 8 weeks old, deprived of food for 18 hours before the experiment with free access to water, were anesthetized with urethane (1.4 g/kg, i.p.) and tracheotomized. After a middle abdominal incision, a dual polyethylene cannula was inserted into the forestomach and the stomach was perfused with saline (37° C., pH 5.0) at a rate of 1 ml/min. The acid output in the perfusate was determined at 5 minutes interval by titration with 0.02 M NaOH to pH 5.0. After the determination of basal acid secretion for 30 min, the acid secretion was stimulated by a continuous intravenous infusion of pentagastrin (16 μg/kg/h). The test compounds were administered by an intravenous bolus injection or intraduodenal administration after the stimulated acid secretion reached a plateau phase. The acid secretion was monitored after the administration.

T1 sequence (P19156 2-1034 limits assumed): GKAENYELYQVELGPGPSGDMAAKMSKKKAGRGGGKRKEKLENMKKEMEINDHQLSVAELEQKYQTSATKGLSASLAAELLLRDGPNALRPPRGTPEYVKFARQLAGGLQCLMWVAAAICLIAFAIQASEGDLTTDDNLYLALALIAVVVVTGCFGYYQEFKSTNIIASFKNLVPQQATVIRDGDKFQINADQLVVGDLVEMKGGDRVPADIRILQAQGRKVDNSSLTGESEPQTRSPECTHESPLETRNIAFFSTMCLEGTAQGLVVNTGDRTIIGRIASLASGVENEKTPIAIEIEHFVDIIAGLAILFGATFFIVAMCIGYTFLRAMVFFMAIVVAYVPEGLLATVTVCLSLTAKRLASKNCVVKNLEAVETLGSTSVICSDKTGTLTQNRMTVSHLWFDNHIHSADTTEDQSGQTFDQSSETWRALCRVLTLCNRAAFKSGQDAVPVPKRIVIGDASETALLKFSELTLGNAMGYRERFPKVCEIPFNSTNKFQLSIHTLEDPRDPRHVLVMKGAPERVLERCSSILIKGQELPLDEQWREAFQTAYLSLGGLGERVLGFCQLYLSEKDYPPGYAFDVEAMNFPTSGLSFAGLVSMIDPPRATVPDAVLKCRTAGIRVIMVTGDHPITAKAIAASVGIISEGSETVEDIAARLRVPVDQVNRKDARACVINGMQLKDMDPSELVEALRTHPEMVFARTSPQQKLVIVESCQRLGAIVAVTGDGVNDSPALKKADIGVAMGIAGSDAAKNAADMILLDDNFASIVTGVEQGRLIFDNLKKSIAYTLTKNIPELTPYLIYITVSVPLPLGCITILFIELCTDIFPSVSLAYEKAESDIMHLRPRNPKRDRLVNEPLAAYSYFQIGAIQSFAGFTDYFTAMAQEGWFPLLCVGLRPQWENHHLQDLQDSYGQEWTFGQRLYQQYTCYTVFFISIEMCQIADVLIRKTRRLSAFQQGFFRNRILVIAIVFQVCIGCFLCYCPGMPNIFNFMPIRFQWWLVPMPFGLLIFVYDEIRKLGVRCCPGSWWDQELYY
T1 sequence (P18434 whole entry partner): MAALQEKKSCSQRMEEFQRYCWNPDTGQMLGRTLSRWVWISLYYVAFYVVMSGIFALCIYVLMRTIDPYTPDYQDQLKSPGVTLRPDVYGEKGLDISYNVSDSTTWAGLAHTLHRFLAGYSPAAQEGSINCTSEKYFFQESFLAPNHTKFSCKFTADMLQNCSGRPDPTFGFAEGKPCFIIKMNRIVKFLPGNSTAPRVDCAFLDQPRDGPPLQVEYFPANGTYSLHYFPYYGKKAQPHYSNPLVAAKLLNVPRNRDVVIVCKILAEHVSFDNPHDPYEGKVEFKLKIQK

IC50 [1] [µM] | SMILES | inhibitory activity (inhibition of acid secretion) [2]
0.093 | Cc1cccc2c1C(Nc1cc(C(=O)N(C)CCO)cn3c(C)c(C)nc13)CCO2 (single isomer, unassigned; (+)) [Example 5-3, (+)-N-(2-Hydroxyethyl)-N,2,3-trimethyl-8-[(5-methyl-3,4-dihydro-2H-chromen-4-yl)amino]imidazo[1,2-a]pyridine-6-carboxamide] | good inhibitory activity
0.0619 | Cc1nc2c(NC3CCOc4ccccc43)cc(C(=O)N(C)C)cn2c1C (single isomer, unassigned; (-)) [Example 1-2, (−)-8-(3,4-Dihydro-2H-chromen-4-ylamino)-N,N,2,3-tetramethylimidazo[1,2-a]pyridine-6-carboxamide] | –
0.0811 | Cc1nc2c(NC3CCOc4ccccc43)cc(C(=O)N(C)CCO)cn2c1C (single isomer, unassigned; (-)) [Example 2-2, (−)-8-(3,4-Dihydro-2H-chromen-4-ylamino)-N-(2-hydroxyethyl)-N,2,3-trimethylimidazo[1.2-a]pyridine-6-carboxamide] | –
0.125 | Cc1nc2c(NC3COCc4ccccc43)cc(C(=O)N(C)C)cn2c1C (single isomer, unassigned; (-)) [Example 3-2, (−)-8-(3,4-Dihydro-1H-isochromen-4-ylamino)-N,N,2,3-tetramethylimidazo[1,2-a]pyridine-6-carboxamide] | –
0.273 | Cc1nc2c(NC3COCc4ccccc43)cc(C(=O)N(C)CCO)cn2c1C (single isomer, unassigned; (-)) [Example 4-2, (−)-8-(3,4-Dihydro-1H-isochromen-4-ylamino)-N-(2-hydroxyethyl)-N,2,3-trimethylimidazo[1,2-a]pyridine-6-carboxamide] | –
0.0862 | Cc1cccc2c1C(Nc1cc(C(=O)N(C)CCO)cn3c(C)c(C)nc13)CCO2 (single isomer, unassigned; (-)) [Example 5-2, (−)-N-(2-Hydroxyethyl)-N,2,3-trimethyl-8-[(5-methyl-3,4-dihydro-2H-chromen-4-yl)amino]imidazo[1,2-a]pyridine-6-carboxamide] | –
